# In patent publication US12285425B2, “Glucocorticoid receptor modulators to treat cervical cancer” (Corcept Therapeutics, Inc., priority 2017, dated 2025):
# How the values were obtained:
# [1] = test system: human HeLa cervical cancer cells; assay: Implanted HeLa cervical cancer tumor growth in mice, CORT125134 and paclitaxel; assay type: in vivo
# Protocol: Suspensions of human HeLa cervical cancer cells were injected subcutaneously into the right flank of 5-6 week old immunosuppressed female mice (BALB/c nude), five million cells per mouse. Tumors were allowed to grow until they reached a volume of 100-200 mm^3. Mice were then grouped into five groups, ten (10) per group. Group 1 was dosed with the paclitaxel vehicle (sterile saline) intravenously (i.v.) every 4 days and the CORT125134 vehicle orally (p.o.) (10% DMSO, 0.1% Tween 80 and 89.9% HPMC (0.5%), 10 ml/kg) every 4 days. Group 2 was dosed with paclitaxel (7.5 mg/kg) i.v. every 4 days. Group 3 was dosed with paclitaxel i.v. every 4 days and with CORT125134 (30 mg/kg) p.o. the day before the administration of paclitaxel and the same day as the administration of paclitaxel. Group 4 received paclitaxel (15 mg/kg) i.v. every 4 days. Group 5 received paclitaxel (15 mg/kg) i.v. every 4 days and CORT125134 (30 mg/kg) p.o. the day before and the day of paclitaxel (15 mg/kg) i.v. administration.
# The longest (L) and shortest (S) diameters of the tumors were measured three times a week with electronic calipers and tumor volume was calculated using the formula for an ellipsoid sphere: S^2×L×(0.5). The tumor growth data are shown in FIG. 1, in which the mean tumor volume for each group of mice is plotted against the number of days of tumor growth since initiation of the treatment. All treatments provide benefit compared to vehicle alone.
# MDA-MB-231 cells = assay: Triple negative breast cancer (TNBC) mouse xenograft model, CORT125134 with paclitaxel; assay type: in vivo, mice
# Protocol: MDA-MB-231 cells (10 million cells per mouse) were injected orthotopically in the right mammary fat pad in groups of female Balb/c nude mice. When the tumors reached a volume of 100-200 mm^3, the mice were randomized into groups of 10 and treatment was initiated. Mice were treated as follows: group 1 received vehicle daily, group 2 received paclitaxel 5 mg/kg i.v. every 4 days, group 3 received paclitaxel 5 mg/kg i.v. every 4 days and CORT125134 30 mg/kg p.o. daily. Tumor volumes were measured 3 times a week in 2 dimensions using a caliper and the volume expressed in mm^3 using the formula V=0.5 a×b2 where a and b are the long and short diameters of the tumor, respectively. Dosing was continued for 28 days, but any mouse in poor condition or with a tumor exceeding 3000 mm^3 was terminated. For comparison between two groups an independent sample t-test was used; for comparison among three or more groups a one-way ANOVA was performed followed by multiple comparison procedures. A p-value <0.05 was considered to be statistically significant. The effect of CORT125134 in combination with paclitaxel in a triple negative breast cancer (TNBC) mouse xenograft model is shown in FIG. 2. Data represent mean+SEM.
# SK-OV-3 cells = assay: Ovarian cancer mouse xenograft model, CORT125134 with gemcitabine/carboplatin; assay type: in vivo, mice
# Protocol: CORT125134 was administered intraperitoneally (i.p.) on days 43, 44, 50 and 51, and gemcitabine/carboplatin was administered i.p. on days 44 and 51. Data represent mean values. SK-OV-3 cells (5 million cells per mouse) were injected in the right flank of female Balb/c nude mice. When tumors reached a volume of 200 mm^3 the mice were randomized into groups of 10 and treatment was initiated. Mice were treated as follows: group 1 received vehicle on dosing days 1, 2, 8 and 9, group 2 received gemcitabine (80 mg/kg i.p.) and carboplatin (15 mg/kg i.p.) on dosing days 2 and 9 and group 3 received gemcitabine/carboplatin in the same regimen as group 2, +CORT125134 (20 mg/kg i.p.) on dosing days 1, 2, 8 and 9. Tumor volumes were measured 3 times a week and tumor volumes were calculated as detailed above. Any mouse in poor condition or with a tumor exceeding 2000 mm^3 was terminated. The results were analyzed as indicated in Example 2 above.
# 22Rv1 cells = assay: Prostate cancer (CRPC) mouse xenograft model, CORT125134 with castration; assay type: in vivo; settings: CORT125134 30 mg/kg p.o. daily for 21 days
# Protocol: 22Rv1 cells (10 million cells per mouse) were injected in the right flank of male Balb/c nude mice. When the tumors reached a volume of 100-200 mm^3 the mice were randomized into groups of 10 and then 2 of the 3 groups were castrated. Treatment was initiated the day after castration as follows: group 1 (not castrated) received vehicle, group 2 (castrated) received vehicle, and group 3 (castrated) received CORT125134 30 mg/kg orally (p.o.) daily for 21 days. Tumor volumes were measured 3 times a week as described previously. Any mouse in poor condition or with a tumor exceeding 3000 mm^3 was terminated. The results were analyzed as indicated in Example 2 above. Data represent mean+SEM.
# cervical cancer = assay: Treating a patient having cervical cancer with SGRM and a chemotherapeutic agent; assay type: in vivo, human; settings: CORT125134 200 mg once a day for eight weeks with nab-paclitaxel 80 mg per square meter i.v. days 1, 8, 15 of 28-day cycle; one patient
# Protocol: A patient complains of upper abdomen pain. They are experiencing loss of appetite, nausea and vomiting episodes, and significant weight loss. […] The suspected tumor is confirmed by histological analysis to be a cancerous tumor. The patient is treated with CORT125134 at a dose of 200 mg once a day for eight weeks in combination with an intravenous infusion of nab-paclitaxel at a dose of 80 mg per square meter of body-surface area as an intravenous infusion over 30 minutes on days 1, 8, and 15 of every 28-day cycle. Tumor load is monitored using enhanced MRI before, during and after the treatment. The imaging indicate that tumor size is decreasing, and the reduction is more than 50% at the end of the treatment period.
# [2] = paclitaxel 5 mg/kg i.v. every 4 days + CORT125134 30 mg/kg p.o. daily
# [3] = gemcitabine/carboplatin + CORT125134 20 mg/kg i.p.
compound,measurement,setting,value
"Cn1cc(S(=O)(=O)N2CCC3=Cc4c(cnn4-c4ccc(F)cc4)C[C@]3(C(=O)c3cc(C(F)(F)F)ccn3)C2)cn1 [CORT125134, (R)-(1-(4-fluorophenyl)-6-((1-methyl-1H-pyrazol-4-yl)sulfonyl)-4,4a,5,6,7,8-hexahydro-1H-pyrazolo[3,4-g]isoquinolin-4a-yl)(4-(trifluoromethyl)pyridin-2-yl)methanone]","p, tumor growth comparison Group 3 vs Group 5",[1]; CORT125134 30 mg/kg + paclitaxel 15 mg/kg (Group 5) vs CORT125134 30 mg/kg + paclitaxel 7.5 mg/kg (Group 3),0.0009
same,"p, tumor growth comparison Group 2 vs Group 3",[1]; CORT125134 30 mg/kg p.o. day before and day of paclitaxel + paclitaxel 7.5 mg/kg i.v. every 4 days (Group 3) vs paclitaxel 7.5 mg/kg alone (Group 2),0.008
same,"p, tumor growth comparison Group 4 vs Group 5",[1]; CORT125134 30 mg/kg p.o. day before and day of paclitaxel + paclitaxel 15 mg/kg i.v. every 4 days (Group 5) vs paclitaxel 15 mg/kg alone (Group 4),<0.0001
same,"tumor growth, combination of paclitaxel and CORT125134 compared with paclitaxel alone","[1]; CORT125134 30 mg/kg p.o. with paclitaxel 7.5 or 15 mg/kg i.v., either dose of paclitaxel",more effective than paclitaxel alone
same,"p, combination compared to paclitaxel alone",MDA-MB-231 cells; [2],< 0.05
same,"p, combination compared to vehicle treated mice",MDA-MB-231 cells; [2],< 0.05
same,"effect on tumor growth, combination of paclitaxel and CORT125134","MDA-MB-231 cells; paclitaxel 5 mg/kg i.v. every 4 days + CORT125134 30 mg/kg p.o. daily, 28 days",significant inhibition of tumor growth
same,"effect on tumor growth, combination of gemcitabine/carboplatin with CORT125134","SK-OV-3 cells; gemcitabine 80 mg/kg + carboplatin 15 mg/kg i.p. dosing days 2, 9 + CORT125134 20 mg/kg i.p. dosing days 1, 2, 8, 9",significant inhibition of tumor growth
same,"p, combination compared to vehicle",SK-OV-3 cells; [3],< 0.001
same,"p, combination compared with carboplatin/gemcitabine",SK-OV-3 cells; [3],< 0.01
same,"effect on tumor growth, CORT125134 in castrated mice compared to mice not castrated",22Rv1 cells,inhibited tumor growth
same,"p, CORT125134 in castrated mice compared to mice not castrated",22Rv1 cells,< 0.0001
same,"p, castration and CORT125134 vs castration alone",22Rv1 cells; castrated mice,< 0.05
same,"tumor growth, combination of castration and CORT125134 compared with castration alone",22Rv1 cells; castrated mice,more effective than castration alone
same,reduction of tumor size at the end of the treatment period (enhanced MRI),cervical cancer,more than 50%
"CC(=O)O[C@H]1C(=O)[C@@]2(C)[C@H]([C@H](OC(=O)c3ccccc3)[C@]3(O)C[C@H](OC(=O)[C@H](O)[C@@H](NC(=O)c4ccccc4)c4ccccc4)C(C)=C1C3(C)C)[C@]1(OC(C)=O)CO[C@@H]1C[C@@H]2O [paclitaxel, reference compound]","p, tumor growth comparison Group 1 vs Group 2",[1]; paclitaxel 7.5 mg/kg i.v. every 4 days (Group 2) vs vehicle (Group 1),0.0281
same,"p, tumor growth comparison Group 1 vs Group 4",[1]; paclitaxel 15 mg/kg i.v. every 4 days (Group 4) vs vehicle (Group 1),0.0006
same,"p compared with vehicle treated mice, paclitaxel alone",MDA-MB-231 cells; paclitaxel 5 mg/kg i.v. every 4 days,not significant
same,"effect on tumor growth, paclitaxel alone","MDA-MB-231 cells; paclitaxel 5 mg/kg i.v. every 4 days, 28 days",ineffective
